The source of these data is PubChem BioAssay AID328 (DTP/NCI, 2004).

Inconclusive results and toxic doses are left out.

The test system of this experiment is BDF1 mice, P388 leukemia ip, median survival T/C. Kind of experiment: NCI In Vivo Anticancer Drug Screen. Data for tumor model P388 Leukemia (intraperitoneal) in B6D2F1 (BDF1) mice. The settings on record: endpoint: median survival time, higher = longer survival. In a few lines:
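Compound-treated tumour-bearing mice were compared with vehicle-treated controls. Survival was recorded, and the value is the treated-group measurement divided by the control-group measurement (T/C).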

[1] abbreviates: dose: 50.0 mg/kg/injection, schedule: Q04DX003 (ip), vehicle: saline with Tween-80.
Setting [2] is: dose: 100.0 mg/kg/injection, schedule: Q04DX003 (ip), vehicle: saline with Tween-80.
[3] abbreviates: dose: 200.0 mg/kg/injection, schedule: Q04DX003 (ip), vehicle: saline with Tween-80.
Where [4] appears, read: dose: 50.0 mg/kg/injection, schedule: Q01DX009 (ip), vehicle: saline with Tween-80.
Setting [5] is: dose: 100.0 mg/kg/injection, schedule: Q01DX009 (ip), vehicle: saline with Tween-80.
[6] abbreviates: dose: 200.0 mg/kg/injection, schedule: Q01DX009 (ip), vehicle: saline with Tween-80.
Where [7] appears, read: dose: 12.5 mg/kg/injection, schedule: Q01DX009 (ip), vehicle: saline with Tween-80.
[8] abbreviates: dose: 25.0 mg/kg/injection, schedule: Q01DX009 (ip), vehicle: saline with Tween-80.

Take `O=[N+]([O-])c1ccc(N2CCCC2)c2c1no[n+]2[O-]`: the T/C by setting is: under setting [1], 101 % of control; under setting [2], 101 % of control; under setting [3], 108 % of control.
For `CN1c2ccccc2C(=O)NC1c1ccc([N+](=O)[O-])s1` (stereo not drawn), the T/C is, setting by setting: under setting [4], 95 % of control; under setting [5], 100 % of control; under setting [6], 91 % of control.
Consider `CCCCCC(=O)O[C@]1(C(C)=O)CC[C@H]2[C@@H]3CCC4=CC(=O)CC[C@]4(C)[C@H]3CC[C@@]21C`, for which the T/C (dose: 44.0 mg/kg/injection, schedule: Q01DX009 (ip), vehicle: saline with Tween-80) is 105 % of control; the T/C (dose: 66.0 mg/kg/injection, schedule: Q01DX009 (ip), vehicle: saline with Tween-80) was 110 % of control; the T/C under setting [5] is 90 % of control; the T/C under setting [2] was 100 % of control; the T/C (dose: 150.0 mg/kg/injection, schedule: Q01DX009 (ip), vehicle: saline with Tween-80) was 100 % of control; the T/C under setting [6] is 105 % of control. In addition, the T/C under setting [3] is 100 % of control; the T/C (dose: 400.0 mg/kg/injection, schedule: Q01DX009 (ip), vehicle: saline with Tween-80) was 100 % of control; the T/C (dose: 400.0 mg/kg/injection, schedule: Q04DX003 (ip), vehicle: saline with Tween-80) is 100 % of control.
As for `C[P+](Cc1ccc([N+](=O)[O-])cc1)(c1ccccc1)c1ccccc1`, the T/C reads like this: (dose: 1.56 mg/kg/injection, schedule: Q01DX009 (ip), vehicle: Klucel (hydroxypropylcellulose) (HPC)) 96 % of control; (dose: 3.12 mg/kg/injection, schedule: Q01DX009 (ip), vehicle: Klucel (hydroxypropylcellulose) (HPC)) 88 % of control; (dose: 12.5 mg/kg/injection, schedule: Q01DX009 (ip), vehicle: Klucel (hydroxypropylcellulose) (HPC)) 89 % of control; (dose: 12.5 mg/kg/injection, schedule: Q04DX003 (ip), vehicle: Klucel (hydroxypropylcellulose) (HPC)) 100 % of control; (dose: 50.0 mg/kg/injection, schedule: Q04DX003 (ip), vehicle: Klucel (hydroxypropylcellulose) (HPC)) 104 % of control.
Turning to `O=NN(CCCl)C(=O)Nc1c[nH]c(=O)[nH]c1=O`, the T/C (dose: 0.08 mg/kg/injection, schedule: Q04DX003 (ip), vehicle: saline with Tween-80) was 155 % of control; the T/C (dose: 0.09 mg/kg/injection, schedule: Q04DX003 (ip), vehicle: saline with Tween-80) was 100 % of control; the T/C (dose: 0.15 mg/kg/injection, schedule: Q04DX003 (ip), vehicle: saline with Tween-80) is 180 % of control; the T/C (dose: 0.3 mg/kg/injection, schedule: Q04DX003 (ip), vehicle: saline with Tween-80) was 185 % of control; the T/C (dose: 0.78 mg/kg/injection, schedule: Q04DX003 (ip), vehicle: saline with Tween-80) was 175 % of control; the T/C (dose: 1.56 mg/kg/injection, schedule: Q04DX003 (ip), vehicle: saline with Tween-80) is 154 % of control. Besides, the T/C runs as follows: (dose: 2.4 mg/kg/injection, schedule: Q01DX009 (ip), vehicle: saline with Tween-80) 186 % of control; (dose: 3.12 mg/kg/injection, schedule: Q04DX003 (ip), vehicle: saline with Tween-80) 213 % of control; (dose: 3.6 mg/kg/injection, schedule: Q01DX009 (ip), vehicle: saline with Tween-80) 201 % of control; (dose: 4.0 mg/kg/injection, schedule: Q01DX009 (ip), vehicle: saline with Tween-80) 195 % of control; (dose: 5.5 mg/kg/injection, schedule: Q01DX009 (ip), vehicle: saline with Tween-80) 193 % of control; (dose: 6.0 mg/kg/injection, schedule: Q01DX009 (ip), vehicle: saline with Tween-80) 229 % of control. Moreover, the T/C (dose: 6.25 mg/kg/injection, schedule: Q04DX003 (ip), vehicle: saline with Tween-80) was 190 % of control; the T/C (dose: 8.0 mg/kg/injection, schedule: Q01DX009 (ip), vehicle: saline with Tween-80) was 220 % of control; the T/C (dose: 8.0 mg/kg/injection, schedule: Q04DX003 (ip), vehicle: saline with Tween-80) is 204 % of control; the T/C (dose: 9.0 mg/kg/injection, schedule: Q01DX009 (ip), vehicle: saline with Tween-80) is 120 % of control; the T/C (dose: 12.0 mg/kg/injection, schedule: Q01DX009 (ip), vehicle: saline with Tween-80) was 250 % of control; the T/C (dose: 12.0 mg/kg/injection, schedule: Q04DX003 (ip), vehicle: saline with Tween-80) is 204 % of control. The T/C is, setting by setting: under setting [7], 250 % of control; (dose: 12.5 mg/kg/injection, schedule: Q04DX003 (ip), vehicle: saline with Tween-80) 230 % of control; (dose: 18.0 mg/kg/injection, schedule: Q01DX009 (ip), vehicle: saline with Tween-80) 104 % of control; (dose: 18.0 mg/kg/injection, schedule: Q04DX003 (ip), vehicle: saline with Tween-80) 227 % of control; under setting [8], 100 % of control; (dose: 25.0 mg/kg/injection, schedule: Q04DX003 (ip), vehicle: saline with Tween-80) 230 % of control. Further, under setting [1], the T/C was 230 % of control.
For the molecule `Cc1ccc(-c2nc3sccn3c2/C=N/NS(=O)(=O)c2ccc(C)cc2)cc1`, the T/C is 101 % of control (dose: 100.0 mg/kg/injection, schedule: Q01DX001 (ip), vehicle: Klucel (hydroxypropylcellulose) (HPC)); 101 % of control (dose: 200.0 mg/kg/injection, schedule: Q01DX001 (ip), vehicle: Klucel (hydroxypropylcellulose) (HPC)); 101 % of control (dose: 400.0 mg/kg/injection, schedule: Q01DX001 (ip), vehicle: Klucel (hydroxypropylcellulose) (HPC)).
For the molecule `C[P+]1(C)CCc2c1ccc1ccccc21`, the T/C is 104 % of control under setting [7], 100 % of control under setting [8] and 104 % of control under setting [4].
For `CCCCCCCCCCCC(=O)N(C)C`, the T/C (dose: 100.0 mg/kg/injection, schedule: Q01DX009 (ip), vehicle: Klucel (hydroxypropylcellulose) (HPC)) was 105 % of control; the T/C (dose: 100.0 mg/kg/injection, schedule: Q04DX003 (ip), vehicle: Klucel (hydroxypropylcellulose) (HPC)) is 104 % of control; the T/C (dose: 200.0 mg/kg/injection, schedule: Q01DX009 (ip), vehicle: Klucel (hydroxypropylcellulose) (HPC)) was 105 % of control; the T/C (dose: 200.0 mg/kg/injection, schedule: Q04DX003 (ip), vehicle: Klucel (hydroxypropylcellulose) (HPC)) was 100 % of control; the T/C (dose: 400.0 mg/kg/injection, schedule: Q04DX003 (ip), vehicle: Klucel (hydroxypropylcellulose) (HPC)) was 100 % of control.
In the case of `N/C(=N\O)c1cn(C2OC(CO)C(O)C2O)c2ncnc(N)c12` (stereo not drawn), the T/C reads like this: (dose: 0.6 mg/kg/injection, schedule: Q01DX009 (ip), vehicle: Klucel (hydroxypropylcellulose) (HPC)) 150 % of control; (dose: 1.25 mg/kg/injection, schedule: Q01DX009 (ip), vehicle: Klucel (hydroxypropylcellulose) (HPC)) 168 % of control; (dose: 2.5 mg/kg/injection, schedule: Q01DX009 (ip), vehicle: Klucel (hydroxypropylcellulose) (HPC)) 154 % of control; (dose: 5.0 mg/kg/injection, schedule: Q01DX009 (ip), vehicle: Klucel (hydroxypropylcellulose) (HPC)) 172 % of control.
In the case of `O=c1[nH]n(-c2ccccc2)c(=O)cc1Cl`, the T/C runs as follows: under setting [4], 95 % of control; under setting [5], 87 % of control; under setting [6], 90 % of control.
